Here are results for four compounds from patent US20250186438A1, “TREATMENT OF CLEAR CELL RENAL CELL CARCINOMA” (RACE ONCOLOGY LTD, priority 2022, published 2025).

Counter-ions that a name gives are not always drawn. Like-named read-outs stand apart in the source and are kept apart here.

The term IC50 denotes the concentration that inhibits the measured activity by half.

One series concerns 786-O cells. Put plainly: Resazurin cell viability assay, drug combinations with synergy analysis. Type of series: cell-based, Human. The settings on record: 786-0 cell line; each drug in combination with zantrene; FIG. 1-3. Here is the method:
(§1) Cell viability was determined using a resazurin metabolic activity assay.
(§2) Resazurin is metabolised into the red-fluorescent resorufin by metabolically active cells. […] Graphpad Prism 9 software was used to generate graphs. Drug IC50 values were determined by cubic spline-lowess regression analysis using Prism 9. At least three independent replicates were performed for each cell line and each drug combination, and data is represented as mean±standard error of the mean (SEM). The culture conditions for each cell line are described below.
(§3) Detail on each of the methods is provided below.
It estimates the expected additive effect of two drugs using the fractional product of the effect of each drug alone, ie:
An observed Fa(Drug1+Drug2) value greater than the expected Fa(Drug1+Drug2) value result indicates synergy, whereas an observed Fa(Drug1+Drug2) lower than the expected value indicates antagonism.
(§4) Using the Henderson-Hasselbalch, Michaelis-Menten, Scatchard, and Hill equations, Chou and Talaly derived the “median-effect” equation to model the median effect dose and sigmoidicity of the dose-response curve, using the inputted doses and corresponding dose-effects. Chou and Talalay also coined the term “CombinationIndex (CI)” to evaluate the degree of synergy between two compounds, defined as: […]
(§5) Within SynergyFinder the Bliss model was used. This model quantifies the degree of synergy as the multiplicative effect of single drugs as if they acted independently. This independence model assumes a stochastic process in which two drugs elicit their effects independently, and the expected combination effect can be calculated based on the probability of independent events.

Series [1] has as its system RCC4 EV cells (VHL(−) mutant). Put plainly: Resazurin cell viability assay (combination synergy analysis; cytotoxic IC50). The settings on record: Homo sapiens, RCC4, 72 h, read-out: Cytotoxic IC50. As for the experimental part: as §1, §2, §3, §4, §5
A general note: Resazurin is reduced to fluorescent resorufin, in cell work by metabolically active cells.

For series [2] the following is noted: cited from earlier work.
The test system of series [3] is RCC4 EV cells (VHL(−) mutant). Put plainly: Clonogenicity assay (colony formation). The series is classed as cell-based. The settings on record: Homo sapiens, ccRCC, VHL status Mut, 96 h drug then 96 h drug-free, read-out: Clonogenic IC50. As for the experimental part: (§6) Clonogenicity assays—Clonogenicity assays were used to determine the colony-forming ability of cells treated with Zantrene. RCC4EV and RCC4 VHL Cells were seeded into 6-well plates at 1000 cells/well and allowed to adhere for 24 h. […] Drug-containing media was removed and replaced with freshmedia (without drug) and cultured for an additional 96 h to allow the formation of cell colonies. At endpoint, media was removed from wells and cells washed with cold PBS twice. Cells were fixed with ice-cold methanol for 10 minutes on ice followed immediately by staining with crystal violet solution (0.5% crystal violet, 25% methanol in PBS) at room temperature. Excess crystal violet solution was washed away and pictures of plates capturedon a ChemiDoc MP Imaging System (Bio-Rad). Images were analysed using the ColonyArea plugin [Guzman C. et al (2014), “ColonyArea: an ImageJ plugin to automatically quantify colony formation in clonogenic assays”, PLoS One, 9(3):e92444] for ImageJ [Schneider C. A. et at (2012), “NIH Image to ImageJ: 25 years of image analysis”, Nat Methods 9(7):671-675] and the percent area of the well filled by colonies determined and presented as % of untreated cells using Prism 9. Four independent replicates were performed for each cell line and data is represented as mean±SEM.

Series [4] concerns RCC4 VHL cells (VHL rescue line). Put plainly: Clonogenicity assay (colony formation). Type of series: cell-based. The note with it: Homo sapiens, ccRCC, VHL status Mut + WT, 96 h drug then 96 h drug-free, read-out: Clonogenic IC50. As for the experimental part: as §6
Setting [5] is: 5-day schedule of 60 min infusions.
Where [6] appears, read: another trial, doses of 80-250 mg/m2.
Where [7] appears, read: patients, 90 min infusion at 260 mg/m2, biphasic elimination.
The mark [8] stands for this setting: patients, 90 min infusion at 260 mg/m2.
The mark [9] stands for this setting: single dose study, triphasic elimination, first of three.
The mark [10] stands for this setting: single dose study, triphasic elimination, second of three.

With `COc1cc2nccc(Oc3ccc(NC(=O)NC4CC4)c(Cl)c3)c2cc1C(N)=O` [lenvatinib], in the series on 786-O cells, the “Combination effect with zantrene, method of Webb analysis” value (“Combination effect with zantrene” below) is on record as “strongest synergy”.

In the case of `C(=NNC1=NCCN1)c1c2ccccc2c(C=NNC2=NCCN2)c2ccccc12` [bisantrene, 9,10-anthracenedicarboxaldehyde bis[(4,5 dihydro-1H-imidazo-2-yl)hydrazine]dihydrochloride], the figures for the IC50 in series [1], in series [3] and in series [4] were 907 nM, 167 nM and 483 nM, respectively. The “Dose excreted in the urine” value in series [2] (setting [5]) is listed as 7.1%. The figures for the “t½ α” value in series [2] (setting [5]), in series [2] (setting [9]) and in series [2] (setting [10]) were 0.9 h, 0.0573 h and 0.05 h, respectively. Further, the “t½ β” value in series [2] (setting [5]) was 9.7 h; in series [2] (setting [9]), 1.33 h; in series [2] (setting [10]), 1 h. Also, the Plasma concentration in series [2] (72 h infusion study, dose of 56 mg/m2) is 12 ± 6 ng/mL; in series [2] (72 h infusion study, dose of 260 mg/m2) it was 55 ± 8 ng/mL. Besides, the Plasma clearance is 1306±179 mL/min/m2 in series [2] (72 h infusion study) and 735 mL/min/m2 in series [2] (setting [8]). The “Calculated volume of distribution” value in series [2] (setting [6]) is 42.1 ± 5.9 L/kg. Moreover, the Clearance in series [2] (setting [6]) was 17.425 ± 0.85 mL/min/kg. Also, the Initial half-life in series [2] (setting [6]) is 0.6 h; in series [2] (setting [7]), 1.08 ± 0.25 h. Also, the Terminal half-life in series [2] (setting [6]) is 24.7 h; in series [2] (setting [7]), 19.03 ± 3.77 h. Besides, the “Administered dose excreted unchanged in the urine” value in series [2] (in 24 h, 90 min infusion at 260 mg/m2) is listed as 11.3%. Further, the “Urinary excretion of the dose” value in series [2] (in 24 h, 72 h infusion study) is given as 4.6%. In addition, the Volume of distribution in series [2] (one report, interpreted as tissue sequestration with depot effect) was 687 L/m2. Also, the “Administered dose found in the urine” value in series [2] (over 96 h, doses of 80-250 mg/m2) is 3.4±1.1%. In series [2] (setting [8]), the “Steady state volume of distribution (Vdss)” value is listed as 1845 L/m2. The “t½ γ” value in series [2] (setting [9]) was 26.13 h; in series [2] (setting [10]), 8 h.

As to `CO[C@H]1C[C@@H]2CC[C@@H](C)[C@@](O)(O2)C(=O)C(=O)N2CCCC[C@H]2C(=O)O[C@H]([C@H](C)C[C@@H]2CC[C@@H](OCCO)[C@H](OC)C2)CC(=O)[C@H](C)/C=C(\C)[C@@H](O)[C@@H](OC)C(=O)[C@H](C)C[C@H](C)/C=C/C=C/C=C/1C` [everolimus], the “Combination effect with zantrene” value in the series on 786-O cells is “Synergy”.

On to `CNC(=O)c1cc(Oc2ccc(NC(=O)Nc3ccc(Cl)c(C(F)(F)F)c3)cc2)ccn1` [sorafenib], for which the “Combination effect with zantrene” value with 786-O cells is “Synergy”.
